From patent US6887981B2, “Natural antibacterial peptide, the nucleotide sequence encoding it and the use thereof” (Shanghai CAS Shenglonda Biotech (Group) Co., Ltd., priority 2002, dated 2005)

Key:
[1] = EDS rat model, androgen (serum testosterone) level after EDS injection; assay type: in vivo, Sprague-Dawley rat; conditions: adult rat, intraperitoneal EDS 7.5 mg/100 g bodyweight; restored in about two weeks
Description: The “▴” line represents rat serum testosterone level at various time intervals after EDS injection. The “♦” line represents rat Bin1b expression changes which are calibrated by 18s level.
Adult Sprague-Dawley was intraperitoneally injected with EDS (7.5 mg/100 g bodyweight) in DMSO-H2O (1:3, v/v). The rats were sacrificed on day 1, 3, 7, 14, 21, 28 and 42. The rat without EDS injection served as the negative control. 20 ug total RNA was extracted from rat caput epididymis, fractionated by 1.2% formaldehyde agarose gel electrophoresis, blotted onto Hybond-N+ membrane and hybridized with a probe located at Bin1b cDNA 3′ terminal and 18s ribosome RNA probe.

E. coli = assay: Antimicrobial activity of secretions of primary epididymal epithelial cultures, CFU counting; assay type: cell-based; conditions: concluded from caput culture secretions and antisense block
Description: FIG. 7A. […] 100 colony forming units (CFU) of E. coli was added to cultures 16 hours prior to examination.
A total of 100 colony-forming units (CFU) of E. coli was added to the apical compartment of the epithelial cells separately from caput epididymis and cauda epididymis. The medium was collected 16 hours later for CFU counting.

| Molecule | secretion of androgen after EDS injection [1] | antimicrobial activity of Bin1b (E. coli) |
| --- | --- | --- |
| CS(=O)(=O)OCCOS(C)(=O)=O [EDS, Ethylene Dinethamesulfonate] | decreased immediately |  |
| Bin1b: natural antibacterial peptide of beta-defensin family expressed in rat caput epididymidis; SEQ ID NO:2, mature form SEQ ID NO:3 (protein, listed as Homo sapiens, ends and bridges not checked) MKVLLLFAVFFCLVQRNSGDIPPGIRNTVCFMQRGHCRLFMCRSGERKGDICSDPWNRCCVSSSIKNR |  | antimicrobial activity |
